In article PMC10058894, “Bioactive C21 Steroidal Glycosides from Euphorbia kansui Promoted HepG2 Cell Apoptosis via the Degradation of ATP1A1 and Inhibited Macrophage Polarization under Co-Cultivation” (Molecules, 2023):

Assays:
Type in all cases: cell-based
HepG2 cells [1] = experiment: Fluorescence staining for apoptosis (Hoechst 33342, Annexin V/PI)
Experimental: (§1) HepG2 cells (4 × 10^5 cells/well) were incubated in confocal dishes with DMEM for 24 h and then treated with compounds for 48 h. Then, the cells were treated with 0.1% Triton X-100 for 10 min and washed with PBS five times. Finally, the cells were dyed with anti-ATP1A1 at 4 °C overnight. Nuclear staining with DAPI (1 μg∙mL^−1) was added for 7 min in the dark, and the cells were washed. The stained images were captured under a laser scanning confocal microscope (Nikon A1 AIR MP+, Tokyo, Japan). HepG2 cells (5 × 10^5 cells/well) were incubated in 6-well plates in complete DMEM. Cells were treated with compounds for 24 h. Then, the cells were stained with Annexin V/PI for 30 min at 4 °C in the dark, and apoptosis analysis was carried out by laser scanning confocal microscopy.

HepG2 cells [2] = experiment: Scratch test and colony formation assay; settings: scratch 36 h, colony 7 days, 12.5 and 25 μmol
Experimental: HepG2 cells (8 × 10^4 cells/well) were incubated in 24-well plates for 24 h. Cells were treated with a compound for 36 h after making a uniform straight from scratch with a 200 μL pipette tip. Cell motility was detected by measuring the wound closure distance after 36 h. Images were recorded using an inverted microscope (Olympus CK40, Shinjuku, Japan). HepG2 cells (600 cells/well) were incubated in 6-well plates and treated with the compound. One week later, visible colonies had formed. Then, the colonies were fixed with 4% polymethanol paraformaldehyde and stained with crystal violet (0.005%). The number of colonies was calculated by using a microscope.

[3] = MTT assay, cell viability of RAW264.7 cells; settings: mouse, half inhibitory of RAW264.7 cells
Experimental: HepG2 cells (1 × 10^4 cells/well) or RAW264.7 cells ([…]) were incubated in 96T wells for 24 h. Then, HepG2 cells were treated with compounds or Adriamycin for 48 h. In addition, RAW264.7 cells were treated with compounds for 24 h. Then, 0.5% MTT (Sigma, Saint Louis, MO, USA) was added to 20 μL/well for 3.5 h. The supernatant was discarded, and DMSO (150 μL/well) was added to dissolve the purple formazan. Cells were agitated for 15 min at room temperature, and the absorbance at 490 nm was recorded by SpetraMax M2 (Molecular Devices, San Jose, CA, USA).
RAW264.7 cells (8 × 10^4 cells/well) were incubated in 96T wells with DMEM for 24 h and then treated with compounds and LPS (1 μg/mL) for 24 h; this included the control group and LPS group. Then, the cell supernatant was collected for nitric oxide production assay. Next, 100 uL/well PBS was added to 96T wells, then 0.5% MTT (Sigma, Saint Louis, MO, USA) was added to 20 μL/well for 3.5 h. DMSO (150 μL/well) was added to dissolve the purple formazan. Cells were agitated for 15 min at room temperature, and the absorbance at 490 nm was recorded by SpetraMax M2 (Molecular Devices, San Jose, CA, USA). The NO inhibition rate (%) = (ODLPS group − ODcompound group)/(ODLPS group-ODcontrol group) × 100%. The IC50 value refers to the inhibitory of nitric oxide production of LPS-stimulated RAW264.7 cells. Then, 70 uL of each cell supernatant sample was added into a new 96T plate, and Griess A and Griess B were added separately. Then, the absorbance value at 540 nm was detected and then brought into the standard curve to assay the concentration of NO. The cell survival rate (%) = (ODcompound group − ODblank group)/(ODcontrol group − ODblank group) × 100%. The half concentration of the cell death (CC50) value refers to the concentration of compound 5 when 50% of RAW264.7 cells die. The iNOS inhibitor ([…], L-NMMA) was selected as the positive control. The levels of cytokines (IL-1β, IFN-γ, IL-10, TNF-α, and IL-6) in the cell supernatant were determined using an ELISA kit (Novus Biologicals, Shanghai, China, Lot: 834472, 770118, 772051, 486956, 602865). When the process was conducted according to the manufacturer’s instructions, the absorbance was read at 450 nm/570 nm in a SpectraMax 340PC microplate spectrophotometer (Molecular Devices, San Jose, CA, USA).

ATP1A1 = ATP1A1 (Homo sapiens, UniProt P05023); experiment: ATP1A1 level and location in HepG2 cells (western blot, fluorescence staining, lysosomal colocalization); design: we focused on the regulatory effect of 5 on ATP1A1 in HepG2 cells; endogenous in cells; host or cells: HepG2
Experimental: as §1
Protein samples were prepared using a RIPA lysis buffer. The concentration of the protein was analyzed using a nucleic acid and protein microanalyzer (Molecular Devices, San Jose, CA, USA). SDS–PAGE was performed to separate the proteins, which were then electrotransferred onto a PVDF membrane. The membrane was incubated with antibodies at 4 °C overnight. Next, the membrane was washed and incubated with an HRP-conjugated secondary antibody (Beyotime, BeiJing, China). Finally, signals were detected by the ECL method (Beyotime, BeiJing, China) and analyzed using ImageJ software.

SMILES: C[C@H](O)[C@]1(O)CC[C@@]2(O)[C@]1(C)[C@H](OC(=O)/C=C/c1ccccc1)C[C@@H]1[C@@]3(C)CC[C@H](O[C@H]4C[C@H](O)[C@H](O)[C@@H](C)O4)CC3=CC[C@]12O [Compound 5, Cynsaccatol L]
- nuclear changes (Hoechst 33342 staining) (HepG2 cells [1]): significantly induce nuclear changes
- nuclear and cell membrane morphological changes (Annexin V/PI staining) (HepG2 cells [1]; as low as 12.5 μmol∙L−1): significantly induce nuclear and cell membrane morphological changes
- cell migration and proliferation (scratch and colony formation) (HepG2 cells [2]): greatly inhibited
- CC50 at 24 h [3]: 30.1 ± 3.14 µM
- endocytosis of ATP1A1 protein (lysosomal colocalization assay) (ATP1A1; HepG2, 12.5 or 25 μmol∙L−1 for 48 h, 25 μmol∙L−1 for 12 h or 24 h): induce the endocytosis of the ATP1A1 protein
- expression of ATP1A1 (comparison with inhibitors) (ATP1A1; HepG2, 5 25 μmol∙L−1, digitonin 10, MK 2206 40, FR 180204 200 nmol∙L−1, western blot): decreased
- green fluorescence intensity of ATP1A1 on the cell membrane (ATP1A1; HepG2 cells, fluorescence staining): significantly reduced in a dose-dependent manner
- level of ATP1A1 (ATP1A1; HepG2 cells, western blot): significantly reduced
